# Experimental data as given in patent publication US4826872A, “Pharmaceutical composition for treatment of cataract” (Takeda Chemical Industries, Ltd., priority 1986, dated 1989).
# Like-named read-outs stand apart in the source and are kept apart here.
# What was measured:
# [1] = test system: lens (cataract after streptozocin administration); test: Slit-lamp observation of progress of cataract in streptozocin-treated rats (Experiment 1); format: in vivo, male S.D. strain rats; conditions: vs control group, lens observed 7-35 days after streptozocin
# Description: Test procedure: 4-week-old male S.D. strain rats were purchased from Shizuoka Prefecture Animals Farmers' Cooperative, grouped by 10 animals after 5 days of preliminary feeding, and subjected to the test. […] To the vitamin E group, tocopherol acetate (50 mg/ml) was given orally in the same way at the dose of […] (400 mg/kg/day). To the control group, tap water was orally given at 200 μl/100 g.
# 0 No opacity is observed in the lens.
# I The surface of the lens is slightly opaque or small vacuoles appear on the equator.
# II Vacuoles increase in number and distribute over the cortex while fusing with each other.
# III Vacuoles distributed over the most part of the cortex begin to disappear.
# IV Most vacuoles have disappeared, and the whole cortex becomes opaque and translucent.
# V The nucleoplasm becomes opaque.
# VI The whole lens becomes white turbid.
# [2] = test system: rabbit lens epithelial cells; test: Test System I: MDA formed by auto-oxidation of docosahexaenoic acid in culture of lens epithelial cells; format: cell-based; conditions: for Amount of MDA in culture medium: 24 hours, normal 1.5, control 29.2
# Source text: (§1) The inhibitory effect of 2-0-octadecylascorbic acid [compound (I-A)]on lens epithelial cells was studied.
# (§2) The lens epithelial cells were obtained from a male white rabbit weighing about 2 kg. Thus, after the […] was sacrificed, the eyeballs were immediately enucleated and subjected to the following aseptic procedures. The eyeballs were washed with Hank's balanced salt solution (pH 7.2), disinfected by 30-second immersion in 80% alcohol and re-washed with the same balanced salt solution. Then, using a small knife, the sclera was cut open from the posterior part of the bulb and the lens was taken out. The retina, vitreous body and the zonule of Zinn were removed. Then, the capsule was punctured and separated from the lens by means of forceps. (The epithelial cells came off with the capsule). The separated capsule was incubated in 0.01% EDTA-0.125% trypsin at 37° C. for 20 minutes After addition of the culture medium mentioned below, the mixture was centrifuged at 1,000 rpm for 2 minutes. By repeating this procedure, the epithelial cells were isolated. These cells were subjected to a few serial passages and used in the experiment. The culture medium was Eagle's medium (MEM) supplemented with 15% bovine fetal serum.
# (§3) The following two oxidation systems were used in the experiment: the system using the cytotoxic effect of lipid peroxidation products produced by auto-oxidation of docosahexaenoic acid as an indicator and the system using the cytotoxic effect of activated oxygen species produced by the xanthine-xanthine oxidase system as an indicator. Thus, the confluent cells in dishes were incubated in the following media for 24 hours and the lipid peroxides in the cultures were determined.
# (§4) (1) Normal: Cultured in MEM only
# (§5) (2) Control: Cultured in MEM supplemented
# with 250 μg/ml of docosahexaenoic
# (3) Drug: Cultured in MEM supplemented
# (§6) The thiobarbituric acid method of Yagi [Anal. Biochem., 95, 351-358 (1979)]was used for Test System I and the method of Nakashima [Chem. Pharm. Bull., 33. 5380-5384 (1985)]and Ohsawa [Anal. Sci., 1, 473-476 (1985)]using 1,3-diphenyl-2-thiobarbituric acid was employed with some modification for Test System II.
# [3] = test system: rabbit lens epithelial cells; test: Test System II: MDA formed by activated oxygen species of the xanthine-xanthine oxidase system in culture of lens epithelial cells; format: cell-based; conditions: for Amount of MDA in culture medium: 24 hours, normal 0.005, control 0.134
# Source text: as §1, §2, §3, §4, §5
# with 1 mM of xanthine and 0.01
# U/ml of xanthine oxidase
# (3) Drug: Cultured in MEM supplemented with
# 1 mM of xanthine and 0.01 U/ml of
# xanthine oxidase plus the drug.
# as §6
# cataract [4] = conditions: cited from earlier work
# cataract [5] = conditions: instillation; many specialists doubtful; cited from earlier work
# [6] = cited from Mechanism of Cataract Formation in the Human Lens (1981)
smiles,measurement,setting,value
"CCCCCCCCCCCCCCCCCCOC1=C(O)C(C(O)CO)OC1=O (stereo not shown) [Compound (I-A), 2-0-octadecylascorbic acid]",Delay of progress of cataract (lens stage by slit lamp),"[1]; oral, 100 mg/kg/day first two days then 40 mg/kg/day, Kruskal-Wallis H-test",delayed significantly the progress of cataract
same,Amount of MDA in culture medium,[2]; drug 2.5 μg/ml,6.5 ± 0.1 n mole/ml
same,Amount of MDA in culture medium,[2]; drug 5 μg/ml,5.8 ± 0.7 n mole/ml
same,Amount of MDA in culture medium,[2]; drug 10 μg/ml,10.3 ± 0.6 n mole/ml
same,Inhibition of formation of MDA (in words),[2]; higher concentrations,inhibitory effect was attenuated
same,Inhibition of formation of MDA (in words),[2]; low concentrations (<5 μg/ml),strongly inhibit the formation of MDA
same,Effect relative to DL-α-tocopherol (in words),[3],as effective as DL-α-tocopherol
same,Inhibition of MDA (in words),[3],substantially complete inhibition of MDA
same,Amount of MDA in culture medium,[3]; drug 2 μg/ml,0.024 ± 0.015 n mole/ml
same,Amount of MDA in culture medium,[3]; drug 10 μg/ml,0.016 ± 0.014 n mole/ml
same,Amount of MDA in culture medium,[3]; drug 50 μg/ml,0.001 ± 0.001 n mole/ml
"CC(=O)Oc1c(C)c(C)c2c(c1C)CCC(C)(CCC[C@H](C)CCC[C@H](C)CCCC(C)C)O2 (stereo partly shown) [vitamin E, tocopherol acetate, reference compound]",Delay of progress of cataract (lens stage by slit lamp),[1]; oral tocopherol acetate 400 mg/kg/day,did not delay the progress of cataract
"Cc1c(C)c2c(c(C)c1O)CCC(C)(CCCC(C)CCCC(C)CCCC(C)C)O2 (racemic) [DL-α-Tocopherol, DL-α-tocopherol, reference compound]",Amount of MDA in culture medium,[2]; drug 125 μg/ml,4.2 ± 0.1 n mole/ml
same,Concentration for the same effect relative to compound (I-A),[2]; multiple of the concentration of compound (I-A),about 50 times
same,Amount of MDA in culture medium,[3]; drug 10 μg/ml,0.009 ± 0.011 n mole/ml
Nc1nc[nH]n1 [amizole],Induction of cataract,cataract [4]; in vivo,induce cataract
COc1cccc2c1C(=O)c1c(O)c3c(c(O)c1C2=O)C[C@@](O)(C(=O)CO)C[C@@H]3O[C@H]1C[C@H](N)[C@H](O)[C@H](C)O1 [Adriamycin],Induction of cataract,cataract [4]; [6],induce cataract
N[C@@H](CCC(=O)N[C@@H](CS)C(=O)NCC(=O)O)C(=O)O [glutathione],Effectiveness for treatment of cataract,cataract [5],effective to some extent
CN(N=O)C(=O)N[C@@H](C=O)[C@@H](O)[C@H](O)[C@H](O)CO [streptozocin],Induction of cataract,cataract [4]; [6],induce cataract
